Calls of active or inactive are those of the source. The rule behind the calls is not given here.
Legend:
[1] = Cytotoxicity in human GLC82 cells by MTT assay; format: functional, cell-based
CA46 [2] = test: Antiproliferative activity against cmyc NHE III1 element-deficient human CA46 cells assessed as cell viability after 20 days; format: functional, cell-based
Nucleic Acid [3] = test: Binding affinity to G-quadruplex HTG21 by PCR stop assay; format: nucleic-acid assay
CA46 [4] = test: Induction of senescence in human CA46 cells assessed as flat cells at 0.05 to 0.1 uM after 16 days by beta galactosidase assay; format: functional, cell-based
HeLa = test: Cytotoxicity in human HeLa cells by MTT assay; format: functional, cell-based
Bel-7402 = test: Cytotoxicity in human Bel7402 cells by MTT assay; format: functional, cell-based
Nucleic Acid [5] = test: Inhibition of NM23-H2 interaction with c-myc mutant promoter DNA expressed in human HeLa cells assessed as dissociation of NM23-H2 from c-myc promoter at 0.05 to 0.1 uM by Ch-IP assay; format: cell-based
Ramos [6] = test: Antiproliferative activity against human Ramos cells assessed as cell viability after 20 days; format: functional, cell-based
MGC-803 = test: Cytotoxicity in human MGC803 cells by MTT assay; format: functional, cell-based
[7] = molecular target: Telomerase reverse transcriptase (Homo sapiens) (UniProt O14746); test: […] in human Ramos cells at 0.05 to 0.1 uM for 16 days by TRF length assay; format: cell-based
Telomerase reverse transcriptase (Homo sapiens), sequence (O14746 whole entry): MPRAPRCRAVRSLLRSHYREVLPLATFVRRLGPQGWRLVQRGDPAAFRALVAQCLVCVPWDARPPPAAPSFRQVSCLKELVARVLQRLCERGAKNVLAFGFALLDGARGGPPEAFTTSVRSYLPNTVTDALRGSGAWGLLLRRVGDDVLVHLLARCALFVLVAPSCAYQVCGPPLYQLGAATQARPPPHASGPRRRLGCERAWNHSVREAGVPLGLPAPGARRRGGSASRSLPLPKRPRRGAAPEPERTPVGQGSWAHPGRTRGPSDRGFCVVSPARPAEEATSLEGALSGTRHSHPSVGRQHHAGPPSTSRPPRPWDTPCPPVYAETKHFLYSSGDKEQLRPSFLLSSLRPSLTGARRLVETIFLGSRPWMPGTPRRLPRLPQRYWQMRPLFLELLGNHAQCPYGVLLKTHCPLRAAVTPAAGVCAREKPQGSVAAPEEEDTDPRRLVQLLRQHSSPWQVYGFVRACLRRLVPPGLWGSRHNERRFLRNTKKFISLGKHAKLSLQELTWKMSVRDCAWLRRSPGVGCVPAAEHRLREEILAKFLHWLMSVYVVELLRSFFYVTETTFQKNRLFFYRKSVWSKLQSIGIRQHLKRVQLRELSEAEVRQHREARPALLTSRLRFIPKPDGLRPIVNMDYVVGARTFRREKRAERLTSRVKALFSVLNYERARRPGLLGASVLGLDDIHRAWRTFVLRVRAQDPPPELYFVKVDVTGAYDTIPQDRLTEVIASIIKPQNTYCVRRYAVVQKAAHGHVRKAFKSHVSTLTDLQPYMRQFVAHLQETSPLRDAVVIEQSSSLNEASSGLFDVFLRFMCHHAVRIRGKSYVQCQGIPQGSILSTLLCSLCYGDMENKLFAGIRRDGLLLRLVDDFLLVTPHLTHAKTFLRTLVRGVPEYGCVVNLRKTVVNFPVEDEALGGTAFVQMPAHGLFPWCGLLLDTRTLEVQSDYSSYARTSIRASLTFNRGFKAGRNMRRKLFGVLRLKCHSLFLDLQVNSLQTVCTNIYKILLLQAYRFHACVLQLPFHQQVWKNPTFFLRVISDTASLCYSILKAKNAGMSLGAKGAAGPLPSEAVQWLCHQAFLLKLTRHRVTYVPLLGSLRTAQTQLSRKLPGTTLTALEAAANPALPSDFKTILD

K562 = test: Cytotoxicity in human K562 cells by MTT assay; format: functional, cell-based
Nucleic Acid [8] = test: Binding affinity to c-myc Pu27 DNA G-quadruplex in human Ramos cells assessed as down regulation of c-myc transcription at 0.1 uM after 4 days by qRT-PCR; format: cell-based
Nucleic Acid [9] = test: Binding affinity to c-myc Pu27 DNA G-quadruplex by PCR stop assay; format: nucleic-acid assay
Nucleic Acid [10] = test: Binding affinity to c-myc Pu27 DNA G-quadruplex by ITC titration assay; format: nucleic-acid assay
Nucleic Acid [11] = test: Binding affinity to c-myc Pu27 DNA G-quadruplex in human Ramos cells assessed as down regulation of TERT protein expression at 0.05 to 0.1 uM after 4 days by Western blot method; format: cell-based
Nucleic Acid [12] = test: Binding affinity to c-myc Pu27 DNA G-quadruplex in human Ramos cells assessed as down regulation of TERT transcription at 0.1 uM after 4 days by qRT-PCR; format: cell-based
Nucleic Acid [13] = test: Binding affinity to G-quadruplex HTG21 assessed as change in melting temperature by FRET assay; format: nucleic-acid assay
[14] = molecular target: Telomerase reverse transcriptase (Homo sapiens) (UniProt O14746); test: […] in human Ramos cells at 0.1 uM for 16 days by TRF length assay; format: cell-based
[15] = Cytotoxicity in human SUNE1 cells by MTT assay; format: functional, cell-based
[16] = molecular target: Telomerase reverse transcriptase (Homo sapiens) (UniProt O14746); test: […] in human Ramos cells at 0.05 uM for 16 days by TRF length assay; format: cell-based
Ramos [17] = test: Antiproliferative activity against human Ramos cells assessed as cell viability at 0.05 uM after 20 days; format: functional, cell-based
HL-60 = test: Cytotoxicity in human HL60 cells by MTT assay; format: functional, cell-based
[18] = Cytotoxicity in human CNE2 cells by MTT assay; format: functional, cell-based; conditions: CNE-2
Nucleic Acid [19] = test: Inhibition of POT1 interaction with wild type c-myc DNA G-quadruplex expressed in human HeLa cells assessed as dissociation of POT1 from c-myc promoter at 0.05 to 0.1 uM by Ch-IP assay; format: cell-based
CA46 [20] = test: Induction of senescence in human CA46 cells assessed as gaint cells at 0.05 to 0.1 uM after 16 days by beta galactosidase assay; format: functional, cell-based
Nucleic Acid [21] = test: Binding affinity to c-myc Pu27 DNA G-quadruplex in human CA46 cells assessed as down regulation of TERT transcription at 0.1 uM after 4 days by qRT-PCR; format: cell-based
Nucleic Acid [22] = test: Binding affinity to c-myc Pu27 DNA G-quadruplex in human CA46 cells assessed as down regulation of c-myc transcription at 0.1 uM after 4 days by qRT-PCR; format: cell-based
Ramos [23] = test: Induction of senescence in human Ramos cells assessed as flat cells at 0.05 to 0.1 uM after 16 days by beta galactosidase assay; format: functional, cell-based
Nucleic Acid [24] = test: Binding affinity to c-myc Pu27 DNA G-quadruplex in human Ramos cells assessed as down regulation of c-myc protein expression at 0.05 to 0.1 uM after 4 days by Western blot method; format: cell-based
Nucleic Acid [25] = test: Inhibition of NM23-H2 interaction with c-myc DNA G-quadruplex in human HeLa cells assessed as inhibition of c-myc expression at 0.1 uM measured by quantitative RT-PCR analysis; format: cell-based
Nucleic Acid [26] = test: Inhibition of NM23-H2 interaction with wild type c-myc DNA G-quadruplex expressed in human HeLa cells assessed as dissociation of NM23-H2 from c-myc promoter at 0.05 to 0.1 uM by Ch-IP assay; format: cell-based
Nucleic Acid [27] = test: Binding affinity to c-myc Pu27 DNA G-quadruplex assessed as change in melting temperature by FRET assay; format: nucleic-acid assay
Ramos [28] = test: Induction of senescence in human Ramos cells assessed as gaint cells at 0.05 to 0.1 uM after 16 days by beta galactosidase assay; format: functional, cell-based
Nucleic Acid [29] = test: Binding affinity to c-myc Pu27 DNA G-quadruplex in human CA46 cells assessed as down regulation of c-myc protein expression at 0.05 to 0.1 uM after 4 days by Western blot method; format: cell-based
Nucleic Acid [30] = test: Binding affinity to G-quadruplex HTG21 by ITC titration assay; format: nucleic-acid assay

CN(C)CCCNc1c2ccccc2nc2c1[nH]c1ccccc12
IC50 [1]: 0.24 µM | inhibition (CA46 [2]): inactive | IC50 (Nucleic Acid [3]): 2.5 µM | Activity (CA46 [4]): inactive | IC50 (HeLa): 0.24 µM | IC50 (Bel-7402): 0.24 µM | inhibition (Nucleic Acid [5]): inactive | Activity (Ramos [6]): Dose-dependent effect | IC50 (MGC-803): 0.24 µM | inhibition [7]: Active | IC50 (K562): 0.24 µM | Activity (Nucleic Acid [8]): Active | IC50 (Nucleic Acid [9]): 1.8 µM | Ka (Nucleic Acid [10]): 4.03 10^4 M^-1 | Activity (Nucleic Acid [11]): Active | Activity (Nucleic Acid [12]): Active | ΔTm (Nucleic Acid [13]): 10 °C | inhibition [14]: Active | IC50 [15]: 0.24 µM | inhibition [16]: Active | Activity (Ramos [17]): Active | IC50 (HL-60): 0.24 µM | IC50 [18]: 0.24 µM | inhibition (Nucleic Acid [19]): inactive | Activity (CA46 [20]): inactive | Activity (Nucleic Acid [21]): inactive | Activity (Nucleic Acid [22]): inactive | Activity (Ramos [23]): Active | Activity (Nucleic Acid [24]): Active | inhibition (Nucleic Acid [25]): Active | inhibition (Nucleic Acid [26]): Active | ΔTm (Nucleic Acid [27]): 13 °C | Activity (Ramos [28]): Active | Activity (Nucleic Acid [29]): Active | Ka (Nucleic Acid [30]): 1.79 10^4 M^-1
